From patent US20220002297A1, “POLYMORPHS OF X842” (Cinclus Pharma AG, priority 2020, published 2022)
Blank lines part the entries; values can stand above or below the compound they belong to.

Experiments:
[1] = Thermogravimetric analysis (TGA); type: physicochemical; conditions: for degradation of the sample (temperature): 25 to 320° C., 10° C./minute
Description: Analyses were performed on a Mettler Toledo TGA/DSC1 instrument, coupled with a Thermo Nicolet iS10 spectrometer. The sample was flushed with dry nitrogen gas during the analysis. The sample was scanned from 25 to 320° C. with a scan rate of 10° C./minute.
Degradation of the sample occurred at approximately 248° C.
Melting of the sample occurred at approximately 211° C., and degradation of the sample occurred at approximately 251° C.

[2] = Half-life in the body, X842 compared to Linaprazan; type: in vivo; conditions: in comparison with Linaprazan
Description: (§1) X842 is a prodrug of Linaprazan, which was disclosed in WO 99/55706 and previously studied in Phase I and II studies. […] A clinical Phase I study has shown that administration of a single dose of X842 can maintain the intragastric acidity above pH 4 for 24 hours. X842 is therefore tailored for patients with severe erosive gastroesophageal reflux disease (eGERD).

[3] = tested on: intragastric acidity; type: in vivo, human
Description: as §1
Following absorption into the blood stream, X842 is quickly metabolized into Linaprazan, which is the active metabolite of X842. Whereas the plasma concentration of X842 is only very low and difficult to determine, the plasma concentration of Linaprazan may be determined instead. […] It is estimated that this requires a minimal plasma concentration (Cmin) of Linaprazan of at least about 240 nmol/L after 22 hours. At such doses, a once daily oral administration of the formulation would be sufficient. Therefore, in another aspect, the invention relates to the pharmaceutical composition as disclosed herein, wherein a unit dose of the composition provides a Cmin of Linaprazan in a human of at least about 240 nmol/L after 22 hours following oral administration of the pharmaceutical composition to said human.

[4] = Phase I and II studies; cited from earlier work
[5] = Dynamic vapour sorption (DVS) analysis, hygroscopicity; type: physicochemical
Description: Analyses were performed on a Surface Measurement Systems DVS Intrinsic instrument. The relative humidity at 25° C. was calibrated against the deliquescense point of LiCL, Mg(NO3)2 and KCl. The sample (about 10-20 mg) was dried with nitrogen gas until a dm/dt below 0.002% per minute was reached. The instrument was running in dm/dt mode using a minimum dm/dt stability duration of 10 minutes and a maximum equilibrium time of 180 minutes. The sample was subjected to a sorption-desorption cycle running from 0 to 95 to 0% RH. One cycle consisted of 20 steps, those between 0 and 90% RH were taken in 10% RH each.
The hygroscopicity of Form A was investigated using DVS at 25° C. The water uptake at 25° C./80% RH was about 0.08%, which means that Form A is non-hygroscopic.

degradation of the sample (temperature) [1]: approximately 251 °C | weight loss ([1]; in the range of 128-220° C., attributed to loss of isopropyl alcohol): approximately 1%
SMILES: Cc1cccc(C)c1CNc1cc(C(=O)NCCOC(=O)CCCC(=O)O)cn2c(C)c(C)nc12 [Form B, 5-{2-[({8-[(2,6-dimethylbenzyl)amino]-2,3-dimethylimidazo[1,2-a]pyridine-6-yl}carbonyl)-amino]ethoxy}-5-oxopentanoic acid]

half-life in the body [2]: longer
SMILES: Cc1cccc(C)c1CNc1cc(C(=O)NCCOC(=O)CCCC(=O)O)cn2c(C)c(C)nc12 [Form X842, 5-{2-[({8-[(2,6-dimethylbenzyl)amino]-2,3-dimethylimidazo[1,2-a]pyridine-6-yl}carbonyl)-amino]ethoxy}-5-oxopentanoic acid]
time intragastric pH is maintained above 4 ([3]; after administration of X842, Phase I): 24 hours

minimal plasma concentration (Cmin) of Linaprazan required to maintain intra-gastric pH above 4 for 24 hours ([3]; human, in vivo, po, 22 h): at least 240 nmol/L
SMILES: Cc1cccc(C)c1CNc1cc(C(=O)NCCO)cn2c(C)c(C)nc12 [Linaprazan]
elimination from the body [4]: quickly eliminated | tolerability [4]: well tolerated

degradation of the sample (temperature) [1]: approximately 248 °C | weight loss before melting ([1]; before melting at approximately 217° C.): did not show any weight loss | hygroscopicity ([5]; DVS at 25° C.): non-hygroscopic | water uptake ([5]; DVS, 25° C./80% RH): about 0.08% | change of form after DVS (X-ray powder diffractograms before and after) ([5]; sorption-desorption cycle 0 to 95 to 0% RH, 25° C.): no change of form occurred
SMILES: Cc1cccc(C)c1CNc1cc(C(=O)NCCOC(=O)CCCC(=O)O)cn2c(C)c(C)nc12 [Form A, 5-{2-[({8-[(2,6-dimethylbenzyl)amino]-2,3-dimethylimidazo[1,2-a]pyridine-6-yl}carbonyl)-amino]ethoxy}-5-oxopentanoic acid]
